From patent US20220033389A1, “INSECTICIDAL COMPOUNDS” (SYNGENTA CROP PROTECTION AG, priority 2018, published 2022)

Legend:
Format in all cases: in vivo
[1] = test system: Diabrotica balteata (Corn Root Worm); test: Diabrotica balteata (corn root worm) on maize sprouts, spray; conditions: 96 h, L2 larvae, 4 days after infestation, read-out: effect in at least one of the two categories (mortality or growth inhibition)
Protocol: Diabrotica balteata (Corn Root Worm)
Maize sprouts placed onto an agar layer in 24-well microtiter plates were treated with aqueous test solutions prepared from 10′000 ppm DMSO stock solutions by spraying. After drying, the plates were infested with L2 larvae (6 to 10 per well). The samples were assessed for mortality and growth inhibition in comparison to untreated samples 4 days after infestation.

[2] = test system: Euschistus heros (Neotropical Brown Stink Bug); test: Euschistus heros (neotropical brown stink bug) on soybean leaves, spray; conditions: 120 h, N2 nymphs, 5 days after infestation, read-out: effect in at least one of the two categories (mortality or growth inhibition)
Protocol: Euschistus heros(Neotropical Brown Stink Bug) Soybean leaves on agar in 24-well microtiter plates were sprayed with aqueous test solutions prepared from 10′000 ppm DMSO stock solutions. After drying the leaves were infested with N2 nymphs. The samples were assessed for mortality and growth inhibition in comparison to untreated samples 5 days after infestation.

[3] = test system: Plutella xylostella (Diamond Back Moth); test: Plutella xylostella (diamond back moth), L2 larvae on artificial diet; conditions: 120 h, 5 days after infestation, read-out: effect in at least one of the two categories (mortality or growth inhibition)
Protocol: (§1) Plutella xylostella (Diamond Back Moth)
24-well microtiter plates with artificial diet were treated with aqueous test solutions prepared from 10′000 ppm DMSO stock solutions by pipetting. After drying, the plates were infested with L2 larvae (10 to 15 per well). The samples were assessed for mortality and growth inhibition in comparison to untreated samples 5 days after infestation.

[4] = test system: Myzus persicae (Green Peach Aphid); test: Myzus persicae (green peach aphid) feeding/contact activity; conditions: 144 h, mixed ages, 6 days after infestation
Protocol: Myzus persicae (Green Peach Aphid): Feeding/Contact Activity
Sunflower leaf discs were placed onto agar in a 24-well microtiter plate and sprayed with aqueous test solutions prepared from 10′000 ppm DMSO stock solutions. After drying, the leaf discs were infested with an aphid population of mixed ages. The samples were assessed for mortality 6 days after infestation.

[5] = test system: Spodoptera littoralis (Egyptian Cotton Leaf Worm); test: Spodoptera littoralis (Egyptian cotton leaf worm) on cotton leaf discs; conditions: foliar, 72 h, L1 larvae, 3 days after infestation
Protocol: Spodoptera littoralis (Egyptian Cotton Leaf Worm)
Cotton leaf discs were placed onto agar in 24-well microtiter plates and sprayed with aqueous test solutions prepared from 10′000 ppm DMSO stock solutions. After drying the leaf discs were infested with five L1 larvae. The samples were assessed for mortality, anti-feeding effect, and growth inhibition in comparison to untreated samples 3 days after infestation. Control of Spodoptera littoralis by a test sample is given when at least one of the categories mortality, anti-feedant effect, and growth inhibition is higher than the untreated sample.

[6] = test system: Tetranychus urticae (Two-Spotted Spider Mite); test: Tetranychus urticae (two-spotted spider mite) feeding/contact activity; conditions: 192 h, mixed population (mobile stages), 8 days after infestation
Protocol: Tetranychus urticae (Two-Spotted Spider Mite): Feeding/Contact Activity
Bean leaf discs on agar in 24-well microtiter plates were sprayed with aqueous test solutions prepared from 10′000 ppm DMSO stock solutions. After drying the leaf discs were infested with a mite population of mixed ages. The samples were assessed for mortality on mixed population (mobile stages) 8 days after infestation.

[7] = test system: Thrips tabaci (Onion Thrips); test: Thrips tabaci (onion thrips) feeding/contact activity; conditions: 144 h, mixed ages, 6 days after infestation
Protocol: Thrips tabaci (Onion Thrips) Feeding/Contact Activity
Sunflower leaf discs were placed on agar in 24-well microtiter plates and sprayed with aqueous test solutions prepared from 10′000 ppm DMSO stock solutions. After drying the leaf discs were infested with a thrips population of mixed ages. The samples were assessed for mortality 6 days after infestation.

[8] = test system: Plutella xylostella (Diamond Back Moth); test: Plutella xylostella (diamond back moth), eggs on artificial diet; conditions: 192 h, 8 days after infestation, read-out: effect in at least one of the two categories (mortality or growth inhibition)
Protocol: as §1
24-well microtiter plates with artificial diet were treated with aqueous test solutions prepared from 10′000 ppm DMSO stock solutions by pipetting. After drying, Plutella eggs were pipetted through a plastic stencil onto a gel blotting paper and the plate was closed with it. The samples were assessed for mortality and growth inhibition in comparison to untreated samples 8 days after infestation.

CCOC1=NOC(N(C(=O)c2ccc(C3=NO[C@@](c4cc(Cl)c(F)c(Cl)c4)(C(F)(F)F)C3)cc2C)C(=O)C2CC2)C1 (stereo partly drawn) [Compound A1, N-(cyclopropanecarbonyl)-4-[(5S)-5-(3,5-dichloro-4-fluoro-phenyl)-5-(trifluoromethyl)-4H-isoxazol-3-yl]-N-(3-ethoxy-4,5-dihydroisoxazol-5-yl)-2-methyl-benzamide]
≥ 80%: percent effect (mortality or growth inhibition) at 200 ppm [1] | percent effect (mortality or growth inhibition) at 200 ppm [2] | effect (mortality or growth inhibition) at 200 ppm [3] | mortality at 200 ppm [4] | percent control (mortality, anti-feedant effect or growth inhibition) at 200 ppm [5] | mortality at 200 ppm [6] | mortality at 200 ppm [7]

CCOC1=NOC(N(COC(=O)C(C)C)C(=O)c2ccc(C3=NO[C@@](c4cc(Cl)c(F)c(Cl)c4)(C(F)(F)F)C3)cc2C)C1 (stereo partly drawn) [Compound A2, [[4-[(5S)-5-(3,5-dichloro-4-fluoro-phenyl)-5-(trifluoromethyl)-4H-isoxazol-3-yl]-2-methyl-benzoyl]-(3-ethoxy-4,5-dihydroisoxazol-5-yl)amino]methyl 2-methylpropanoate]
≥ 80%: percent effect (mortality or growth inhibition) at 200 ppm [1] | percent effect (mortality or growth inhibition) at 200 ppm [2] | effect (mortality or growth inhibition) at 200 ppm [3] | mortality at 200 ppm [4] | percent control (mortality, anti-feedant effect or growth inhibition) at 200 ppm [5] | mortality at 200 ppm [6] | mortality at 200 ppm [7]

CCOC1=NOC(N(COC(=O)C(C)(C)C)C(=O)c2ccc(C3=NO[C@@](c4cc(Cl)c(F)c(Cl)c4)(C(F)(F)F)C3)cc2C)C1 (stereo partly drawn) [Compound A3, [[4-[(5S)-5-(3,5-dichloro-4-fluoro-phenyl)-5-(trifluoromethyl)-4H-isoxazol-3-yl]-2-methyl-benzoyl]-(3-ethoxy-4,5-dihydroisoxazol-5-yl)amino]methyl 2,2-dimethylpropanoate]
≥ 80%: percent effect (mortality or growth inhibition) at 200 ppm [1] | percent effect (mortality or growth inhibition) at 200 ppm [2] | effect (mortality or growth inhibition) at 200 ppm [3] | mortality at 200 ppm [4] | percent control (mortality, anti-feedant effect or growth inhibition) at 200 ppm [5] | mortality at 200 ppm [6] | mortality at 200 ppm [7]

CCOC1=NOC(N(CN(C)C(=O)OC)C(=O)c2ccc(C3=NO[C@@](c4cc(Cl)c(F)c(Cl)c4)(C(F)(F)F)C3)cc2C)C1 (stereo partly drawn) [Compound A4, methyl N-[[[4-[(5S)-5-(3,5-dichloro-4-fluoro-phenyl)-5-(trifluoromethyl)-4H-isoxazol-3-yl]-2-methyl-benzoyl]-(3-ethoxy-4,5-dihydroisoxazol-5-yl)amino]methyl]-N-methyl-carbamate]
≥ 80%: percent effect (mortality or growth inhibition) at 200 ppm [1] | percent effect (mortality or growth inhibition) at 200 ppm [2] | percent effect (mortality or growth inhibition) at 200 ppm [8] | mortality at 200 ppm [4] | percent control (mortality, anti-feedant effect or growth inhibition) at 200 ppm [5] | mortality at 200 ppm [6] | mortality at 200 ppm [7]

CCOC1=NOC(N(COC(=O)N(C)C)C(=O)c2ccc(C3=NO[C@@](c4cc(Cl)c(F)c(Cl)c4)(C(F)(F)F)C3)cc2C)C1 (stereo partly drawn) [Compound A5, [[4-[(5S)-5-(3,5-dichloro-4-fluoro-phenyl)-5-(trifluoromethyl)-4H-isoxazol-3-yl]-2-methyl-benzoyl]-(3-ethoxy-4,5-dihydroisoxazol-5-yl)amino]methyl N,N-dimethylcarbamate]
≥ 80%: percent effect (mortality or growth inhibition) at 200 ppm [1] | percent effect (mortality or growth inhibition) at 200 ppm [2] | percent effect (mortality or growth inhibition) at 200 ppm [8] | percent control (mortality, anti-feedant effect or growth inhibition) at 200 ppm [5] | mortality at 200 ppm [6] | mortality at 200 ppm [7]

CCOC1=NOC(N(COC(=O)OC)C(=O)c2ccc(C3=NO[C@@](c4cc(Cl)c(F)c(Cl)c4)(C(F)(F)F)C3)cc2C)C1 (stereo partly drawn) [Compound A6, [[4-[(5S)-5-(3,5-dichloro-4-fluoro-phenyl)-5-(trifluoromethyl)-4H-isoxazol-3-yl]-2-methyl-benzoyl]-(3-ethoxy-4,5-dihydroisoxazol-5-yl)amino]methyl methyl carbonate]
≥ 80%: percent effect (mortality or growth inhibition) at 200 ppm [2] | percent effect (mortality or growth inhibition) at 200 ppm [8] | percent control (mortality, anti-feedant effect or growth inhibition) at 200 ppm [5]

CCOC1=NOC(N(COC(=O)C2CC2)C(=O)c2ccc(C3=NO[C@@](c4cc(Cl)c(F)c(Cl)c4)(C(F)(F)F)C3)cc2C)C1 (stereo partly drawn) [Compound A7, [[4-[(5S)-5-(3,5-dichloro-4-fluoro-phenyl)-5-(trifluoromethyl)-4H-isoxazol-3-yl]-2-methyl-benzoyl]-(3-ethoxy-4,5-dihydroisoxazol-5-yl)amino]methyl cyclopropanecarboxylate]
≥ 80%: percent effect (mortality or growth inhibition) at 200 ppm [2] | percent effect (mortality or growth inhibition) at 200 ppm [8] | percent control (mortality, anti-feedant effect or growth inhibition) at 200 ppm [5]
